# Assay results as given in patent publication US20240058453A1 (priority 2022, published 2024).
# Tested on: bacteria
# Type: cell-based
compound,measurement,value
NC[C@H]1O[C@H](O[C@H]2[C@H](O)[C@@H](O[C@H]3O[C@H](CO)[C@@H](O)[C@H](N)[C@H]3O)[C@H](N)C[C@@H]2N)[C@H](N)C[C@@H]1O [tobramycin],bacteria killing activity,comparable activity
